Measurements taken from patent EP0437336B1, “Biophosphoryl hydrazines and their use as pesticides” (priority 1990, dated 1991).
Converted amounts (≈) assume the structure as drawn. Read-outs that look alike come from different tables or passages of the source.

Columns and labels:
Two-Spotted Spider Mite = assay: Biological Method D: Foliar Insecticidal Activity Test, mite test; assay type: in vivo, Tetranychus urticae; details: foliar spray, kill after twenty-four hours; for LC50: Tetranychus urticae, 24 h, read-out: TSM LC50; on all read-outs here: key: I = Inactive at Rate Tested
Method: (§1) Biological Method D: Foliar Insecticidal Activity Test
(§2) In evaluating the foliar insecticidal activity of the compounds of this invention against insects and mites, the following test procedures were employed.
(§3) Not all compounds were tested at each of the several concentrations stated above. Test concentrations of a compound were selected as those most likely to differentiate dose response of a particular compound toward a particular test insect.
(§4) Initial evaluations were made on one or more of the following pests:
For the mite test, infested bean (Phaseolus limensis var. Woods Prolific) leaf discs [3.18 cm (1.25") in diameter] containing about 50 mites were placed in a Petri dish lid on a moistened piece of cotton. The leaves were then sprayed to thorough wetness with the test solution using a rotating turntable, held for twenty-four hours and then the percentage killed was determined.
(§5) The mortalities obtained in this manner were plotted on logarithmic probability paper.
(§6) The rotating turntable consists of a fixed, continuously operating spray nozzle under which targets are rotated at a fixed speed and distance. If the target is a Petri dish (such as for the bean beetle, armyworm, mite, or aphid tests), the distance from the nozzle is 38.1 cm (15 inches). If the target is a Mason jar (such as for the boll weevil test), the distance from the nozzle is 17.8 cm (7 inches). The nozzle is located 8 inches from the rotating shaft. The targets on individual platforms revolve around the shaft at 1 revolution per 20 seconds but only a brief portion of this time occurs in the spray path. Targets pass only once under the nozzle and then are removed to drying hoods.
(§7) The nozzle used is a 1/4 JCO Spraying Systems (Wheaton, Illinois) air atomizing nozzle equipped with a No. 2850 fluid cap and a No. 70 air cap. At the 68.95 x 10³ Pa gauge (10 psig) air pressure used and with liquid siphon feed, 1.89 ℓ/hr [0.5 GPH (gallons per hour)] are delivered in a round spray pattern with a 21 degree spray angle. Targets are misted with spray droplets to the point that the droplets coalesce to form a uniform thin film insufficient to drown test organisms.

Green Peach Aphid = assay: Biological Method D: Foliar Insecticidal Activity Test, aphid test; assay type: in vivo, Myzus persicae; details: foliar spray; kill after twenty-four hours; further: key: I = Inactive at Rate Tested
Method: as §1, §2, §3, §4
For the aphid test, infested broccoli (Brassica oleracea italica var. DiCicco) leaves containing about 50 aphids were placed in a Petri dish lid on a moistened piece of cotton. The leaves were then sprayed to thorough wetness with the test solution using a rotating turntable, held for twenty-four hours and then the percentage killed was determined.
as §5, §6, §7

Mexican Bean Beetle = assay: Biological Method D: Foliar Insecticidal Activity Test, Mexican Bean Beetle test; assay type: in vivo, Epilachna varivestis; details: Epilachna varivestis, foliar spray
Method: as §1, §2, §3, §4
(§8) For the Mexican Bean Beetle and Southern armyworm tests, individual lima bean (Phaseolus limeniss var. Woods' Prolific) leaves were placed on moistened pieces of filter paper in Petri dishes. The leaves were then sprayed with the test solution using a rotating turntable and allowed to dry. The dishes were then infested with 10 third instar larvae of either the Mexican Been Beetle or the Southern Armyworm. The dishes were then covered. Percent mortality was determined for each species and spray concentration at 48 and 96 hours after treatment.
as §5, §6, §7

Southern Armyworm = assay: Biological Method D: Foliar Insecticidal Activity Test, Southern Armyworm test; assay type: in vivo, Spodoptera eridania; details: foliar spray; for AW 48 hrs LC50: 48 hours after treatment; for AW 96 hrs LC50: 96 hours after treatment; on all read-outs here: key: I = Inactive at Rate Tested
Method: as §1, §2, §3, §4, §8, §5, §6, §7

Boll Weevil = assay: Biological Method D: Foliar Insecticidal Activity Test, boll weevil test; assay type: in vivo, Anthonomous grandis; details: spray into jar
Method: as §1, §2, §3, §4
For the boll weevil test, 10 adult weevils were placed in a 0.24 ℓ (0.5 pint) glass Mason jar containing a small cube of apple. The weevils were confined to the jar by fiberglass screen mesh secured by a screw-type rim cap. The jars were then sprayed with the test solution using a rotating turntable; directing the spray through the mesh into the jar. The percentage killed was determined after forty-eight and ninety six hours.
as §5, §6, §7

[1] = tested on: southern corn rootworm, Diabrotica undecimpunctata howardi; assay: Biological Method A: Corn Rootworm Screening Test (treated non-aggressive soil); details: soil concentration giving 90% mortality, 10 days at 27°C
[2] = tested on: southern corn rootworm, Diabrotica undecimpunctata howardi; details: at-planting soil application
[3] = 96 hours after treatment, read-out: BB 96 hrs LC50
[4] = 48 hours after treatment, read-out: BB 48 hrs. LC50

Row | Structure (SMILES) | TSM LC50 (Two-Spotted Spider Mite) | GPA LC50 (Green Peach Aphid) | LC50 (Mexican Bean Beetle; [3]) [µg/mL] | AW 48 hrs LC50 (Southern Armyworm) | AW 96 hrs LC50 (Southern Armyworm) | BW 48 hrs LC50 (Boll Weevil) | BW 96 hrs LC50 (Boll Weevil) | primary nonagressive Method A crw LC90 [1] [ppm] | LC50 (Mexican Bean Beetle; [4]) [µg/mL] | LC50 (Two-Spotted Spider Mite) [µg/mL] | secondary aggressive Method C crw LC50 ([2]; rated 17 days post-infestation) [kg/ha] | secondary aggressive Method C crw LC50 ([2]; value in brackets) [lb/acre]
1 | CCCCCOP(=S)(NNP(=S)(OCC)OCC)OCC (stereo not drawn) [Compound 63] | I | I | 740 (≈ 1960 µM) | I | I | I | 740 ppm | 1.1 | – | – | – | –
2 | CCCOP(=S)(NNP(=S)(OCC)N1CCCCC1)OCCC (stereo not drawn) [Compound 64] | I | I | 740 (≈ 1830 µM) | I | I | I | I | 8.6 | 740 (≈ 1830 µM) | – | – | –
3 | CCOP(=S)(NNP(=S)(OCC)OC(C)C)OC(C)C (stereo not drawn) [Compound 67, reference compound] | – | I | 62 (≈ 170 µM) | I | I | I | I | 0.09 | 150 (≈ 412 µM) | 150 (≈ 412 µM) | – | –
4 | CCOP(=S)(NNP(=S)(OCC(C)(C)C)OC(C)C)OCC (stereo not drawn) [Compound 68] | – | I | 150 (≈ 382 µM) | I | I | I | I | 1.1 | 500 (≈ 1270 µM) | 520 (≈ 1320 µM) | – | –
5 | CCCOP(=S)(NNP(=S)(OCC)OC(C)(C)C(F)(F)F)OCC (stereo not drawn) [Compound 69] | – | I | 62 (≈ 143 µM) | I | I | I | I | 1.1 | 500 (≈ 1160 µM) | 360 (≈ 833 µM) | – | –
6 | CCCOP(=S)(NNP(=S)(OCC)OC(C)(C(F)(F)F)C(F)(F)F)OCC (stereo not drawn) [Compound 70] | I | I | 45 (≈ 92.5 µM) | I | I | I | I | 1.1 | 500 (≈ 1030 µM) | – | – | –
7 | CCOP(=S)(NCC(C)C)NNP(=S)(OCC)OCC (stereo not drawn) [Compound 71] | I | I | 150 (≈ 413 µM) | I | I | I | I | 1.1 | 150 (≈ 413 µM) | – | – | –
8 | CCCCCCCCOP(=S)(NNP(=S)(OCC)OCC)OCC (stereo not drawn) [Compound 72] | I | I | – | I | I | I | I | 1.1 | – | – | – | –
9 | CCOP(=S)(NNP(=S)(OCC)N(C)CC)OCC (stereo not drawn) [Compound 75] | – | I | 150 (≈ 429 µM) | I | I | I | I | 1.1 | 500 (≈ 1430 µM) | 150 (≈ 429 µM) | – | –
10 | CCCN(C)P(=S)(NNP(=S)(OCC)OCC)OCC (stereo not drawn) [Compound 76] | – | I | 62 (≈ 171 µM) | I | I | I | I | 1.1 | 150 (≈ 413 µM) | 150 (≈ 413 µM) | – | –
11 | CCCCCCOP(=S)(NNP(=S)(OCC)OCC)OCC (stereo not drawn) [Compound 77] | I | I | 150 (≈ 382 µM) | I | I | I | I | 1.1 | 150 (≈ 382 µM) | – | – | –
12 | CCOP(=S)(NNP(=S)(OCC)OCC(F)(F)C(F)(F)F)OCC (stereo not drawn) [Compound 78] | – | I | 150 (≈ 341 µM) | I | I | I | I | 1.1 | 360 (≈ 818 µM) | 150 (≈ 341 µM) | – | –
13 | CCCCCOP(=S)(NNP(=S)(OCCC)OCCC)OCC (stereo not drawn) [Compound 79] | I | I | 62 (≈ 153 µM) | I | I | I | I | 1.1 | 380 (≈ 935 µM) | – | – | –
14 | CCCCCCOP(=S)(NNP(=S)(OCCC)OCCC)OCC (stereo not drawn) [Compound 80] | I | I | – | I | I | I | I | 1.1 | – | – | – | –
15 | CCCOP(=S)(NNP(=S)(NCC(C)C)OCC)OCCC (stereo not drawn) [Compound 81] | I | I | 740 (≈ 1890 µM) | I | I | I | I | 1.1 | 500 (≈ 1280 µM) | – | – | –
16 | CCCOP(=S)(NNP(=S)(OCC)OC(C)C)OCCC (stereo not drawn) [Compound 82] | I | I | 150 (≈ 396 µM) | I | – | – | – | 0.7 | 500 (≈ 1320 µM) | – | 0.95 | 0.85
